Assay results taken from PubChem BioAssay AID1259407 (Chemical Carcinogenesis Research Information System (CCRIS), 2018).
Calls of active or inactive are those of the source. How the calls were made is not given here.

System: CCRIS mutagenicity, Ames/micronucleus/aberration tests
Assay: CCRIS mutagenicity studies
[1] = Test System: AMES SALMONELLA TYPHIMURIUM, Strain/Indicator: TA98, Metabolic Activation: NONE, Method: PREINCUBATION
[2] = Test System: AMES SALMONELLA TYPHIMURIUM, Strain/Indicator: TA100, Metabolic Activation: NONE, Method: PREINCUBATION

With `O=C(O)C(F)(F)C(F)(F)C(F)(F)C(F)(F)C(F)(F)C(F)(F)C(F)(F)C(F)(F)C(F)(F)F` the mutagenic call [1] was “inactive; negative”, the mutagenic call (Test System: AMES SALMONELLA TYPHIMURIUM, Strain/Indicator: TA98, Metabolic Activation: RAT, LIVER, S-9, Method: PREINCUBATION) was “inactive; negative” and the mutagenic call [2] was “inactive; negative”. The mutagenic call (Test System: AMES SALMONELLA TYPHIMURIUM, Strain/Indicator: TA100, Metabolic Activation: RAT, LIVER, S-9, Method: PREINCUBATION) was “inactive; negative”, the mutagenic call (Test System: AMES SALMONELLA TYPHIMURIUM, Strain/Indicator: TA1535, Metabolic Activation: NONE, Method: PREINCUBATION) was “inactive; negative” and the mutagenic call (Test System: AMES SALMONELLA TYPHIMURIUM, Strain/Indicator: TA1535, Metabolic Activation: RAT, LIVER, S-9, Method: PREINCUBATION) was “inactive; negative”. For the same compound, the mutagenic call (Test System: AMES SALMONELLA TYPHIMURIUM, Strain/Indicator: TA1537, Metabolic Activation: NONE, Method: PREINCUBATION) was “inactive; negative”, the mutagenic call (Test System: AMES SALMONELLA TYPHIMURIUM, Strain/Indicator: TA1537, Metabolic Activation: RAT, LIVER, S-9, Method: PREINCUBATION) was “inactive; negative” and the mutagenic call (Test System: AMES SALMONELLA TYPHIMURIUM, Strain/Indicator: TA1538, Metabolic Activation: NONE, Method: PREINCUBATION) was “inactive; negative”. The mutagenic call (Test System: AMES SALMONELLA TYPHIMURIUM, Strain/Indicator: TA1538, Metabolic Activation: RAT, LIVER, S=9, Method: PREINCUBATION) was “inactive; negative”, the mutagenic call (Test System: CHINESE HAMSTER OVARY, Strain/Indicator: CHO-K1-BH4 (HGPRT), Metabolic Activation: NONE, Method: STANDARD PLATE) was “inactive; negative” and the mutagenic call (Test System: CHINESE HAMSTER OVARY, Strain/Indicator: CHO-K1-BH4 (HGPRT), Metabolic Activation: RAT, LIVER, S-9, Method: STANDARD PLATE) was “inactive; negative”. The mutagenic call (Test System: UDS RODENT HEPATOCYTES, Strain/Indicator: THY INCORP (NON-S-PHASE), Metabolic Activation: NONE, Method: AUTORADIOGRAPHY) was “inactive; negative”.

With `CC(=O)Nc1ccc2c(c1OC(=O)c1ccccc1)Cc1ccccc1-2` the mutagenic call (Test System: AMES SALMONELLA TYPHIMURIUM, Strain/Indicator: TA98, Metabolic Activation: RAT, LIVER, S-9, AROCLOR 1254, Method: STANDARD PLATE) was “inactive; negative”.

In the case of `c1ccc(CN2C3c4ccccc4-c4ccccc4C32)cc1` (configuration not stated), the mutagenic call (Test System: AMES SALMONELLA TYPHIMURIUM, Strain/Indicator: TA100, Metabolic Activation: NONE, Method: STANDARD PLATE) was “active; positive”.

In the case of `O=Cc1ccc([N+](=O)[O-])cc1[N+](=O)[O-]`, the mutagenic call (Test System: AMES SALMONELLA TYPHIMURIUM, Strain/Indicator: TA98(1,8-DNP6), Metabolic Activation: NONE, Method: SUSPENSION/PLATE) was “active; positive”, the mutagenic call (Test System: AMES SALMONELLA TYPHIMURIUM, Strain/Indicator: TA98(NR), Metabolic Activation: NONE, Method: SUSPENSION/PLATE) was “active; positive” and the mutagenic call [1] was “active; positive”. For the same compound, the mutagenic call (Test System: AMES SALMONELLA TYPHIMURIUM, Strain/Indicator: TA98, Metabolic Activation: NONE, Method: SUSPENSION/PLATE) was “active; positive”, the mutagenic call (Test System: AMES SALMONELLA TYPHIMURIUM, Strain/Indicator: TA98, Metabolic Activation: RAT, LIVER, S-9, PHENOBARBITAL AND 5,6-BENZOFLAVONE, Method: PREINCUBATION) was “active; positive” and the mutagenic call (Test System: AMES SALMONELLA TYPHIMURIUM, Strain/Indicator: TA100(1,8-DNP6), Metabolic Activation: NONE, Method: SUSPENSION/PLATE) was “active; positive”. For the same compound, the mutagenic call (Test System: AMES SALMONELLA TYPHIMURIUM, Strain/Indicator: TA100(NR), Metabolic Activation: NONE, Method: SUSPENSION/PLATE) was “active; positive”, the mutagenic call [2] was “active; positive” and the mutagenic call (Test System: AMES SALMONELLA TYPHIMURIUM, Strain/Indicator: TA100, Metabolic Activation: NONE, Method: SUSPENSION/PLATE) was “active; positive”. For the same compound, the mutagenic call (Test System: AMES SALMONELLA TYPHIMURIUM, Strain/Indicator: TA100, Metabolic Activation: RAT, LIVER, S-9, PHENOBARBITAL AND 5,6-BENZOFLAVONE, Method: PREINCUBATION) was “active; positive”.

For `Nc1ccc(O)c2c1C(O)=CC(=O)C2=O`, the mutagenic call (Test System: Ames Salmonella typhimurium, Strain/Indicator: TA97, Metabolic Activation: None, Method: Preincubation) was “inactive; negative”, the mutagenic call (Test System: Ames Salmonella typhimurium, Strain/Indicator: TA97, Metabolic Activation: Rat, Liver, S9, Aroclor 1254, Method: Preincubation) was “inactive; negative” and the mutagenic call (Test System: Ames Salmonella typhimurium, Strain/Indicator: TA98, Metabolic Activation: None, Method: Preincubation) was “active; positive”. For the same compound, the mutagenic call (Test System: Ames Salmonella typhimurium, Strain/Indicator: TA98, Metabolic Activation: Rat, Liver, S9, Aroclor 1254, Method: Preincubation) was “inactive; negative”, the mutagenic call (Test System: Ames Salmonella typhimurium, Strain/Indicator: TA100, Metabolic Activation: None, Method: Preincubation) was “inactive; negative” and the mutagenic call (Test System: Ames Salmonella typhimurium, Strain/Indicator: TA100, Metabolic Activation: Rat, Liver, S9, Aroclor 1254, Method: Preincubation) was “inactive; negative”. For the same compound, the mutagenic call (Test System: Ames Salmonella typhimurium, Strain/Indicator: TA102, Metabolic Activation: None, Method: Preincubation) was “inactive; negative” and the mutagenic call (Test System: Ames Salmonella typhimurium, Strain/Indicator: TA102, Metabolic Activation: Rat, Liver, S9, Aroclor 1254, Method: Preincubation) was “active; positive”.

With `O[As](O)O` the mutagenic call (End Point: IN VIVO MICRONUCLEUS, Test System: BONE MARROW POLYCHROMATIC ERYTHROCYTES, Species: MOUSE, Strain/Sex: C57BL/6/MALE, Route: IP INJECTION) was “active; positive”.

In the case of `CN(C)CCNC(=O)c1cccn2c(=O)c3ccccc3nc12`, the mutagenic call (Test System: AMES SALMONELLA TYPHIMURIUM, Strain/Indicator: TA1537, Metabolic Activation: NONE, Method: STANDARD PLATE) was “active; positive”.

`O=S(=O)(O)Oc1cccc2c1cc1ccc3cccc4ccc2c1c34` was tested, and the mutagenic call [1] was “inactive; negative” and the mutagenic call (Test System: AMES SALMONELLA TYPHIMURIUM, Strain/Indicator: TA98, Metabolic Activation: RAT, LUNG, S-9, Method: PREINCUBATION) was “inactive; negative”.
